Assay results: PMC6598759, “In vitro genotoxicity of nitroimidazoles as a tool in the search of new trypanocidal agents” (Memórias do Instituto Oswaldo Cruz, 2019)
Read-outs that look alike come from different tables or passages of the source.

How the values were obtained:
[1] = test system: whole human blood cells (WHBC); test: In vitro cytokinesis-block micronucleus assay (CBMN) with whole human blood cells
Procedure: In vitro cytokinesis-block micronucleus assay (CBMN) with whole human blood cells (WHBC) - Heparinised WHBC samples were obtained by venipuncture from volunteers as described above. […] WHBC cultures exposed to mitomycin C (MMC) (1.0 µg/mL in water) (Bristol, USA) for 2 h or to N-deacetyl-N-methylcolchicine in water (Demecolcine: Sigma-Aldrich) 0.02 µg/mL for 28 h were used as positive control cultures. After the treatment, the WHBC cultures were centrifuged (900 rpm, 10 min) and washed with 5 mL PBS. […] CytB has cytokinesis-block activity leading to the formation of binucleate cells. […] The fixed cell suspension was dropped on a clean glass slide and the slide was air-dried on a heating plate (60 °C). Air-dried slides were stained with 60 µg/mL acridine orange in Sörensen buffer (0.03 M KH2PO4, 0.03 M Na2HPO4) for 3s, then they were embedded in distilled water and covered with a coverslip. MN showing bright green fluorescence were analysed using a fluorescence microscope at 400 X magnification. MN were scored in 2,000 binucleated cells (BNC) for culture and the number of the micronucleate cells (MNC) in 2,000 BNC was determined. Cytotoxicity was measured using the cytokinesis-block proliferation index (CBPI) and the replication index (RI) which were calculated from 500 cells. The CBPI indicates the average number of nuclei per cell, and may be used to calculate cell proliferation. The RI indicates the relative number of cell cycles per cell during the period of exposure to cytoB in treated cultures compared to control cultures and can be used to calculate the % cytostasis. CBPI was calculated according to the formula: CBPI = [(No. mononucleate cells) + (2 x No. binucleate cells) + (3 x No. multinucleate cells)] / N, where N indicates the total number of cells scored. RI (%) was calculated according to the formula:
RI %=((No. binucleate cells) + (2 x No. multinucleate cells)) ÷ (Total number of cells)T/((No. binucleate cells) + (2 x No. multinucleate cells)) ÷ (Total number of cells)C x 100
where T indicates treated cultures and C control cultures
Cytotoxicity was evidenced in the occurrence of reduction in CBPI or RI of cultures treated by test substances when compared to control cultures. The measurement of cytotoxicity was used to select the concentrations of the test substance to be analysed for the presence of MN. […] However, it was adopted in this work as the maximum concentration in CBMN one that induced a proliferation inhibition not exceeding about 50% established by ICH S2 (R1) for lymphocyte cultures.
The chi-square test for trend was performed to analyse if the increase of MNC was concentration-related.[30]

[2] = test system: bloodstream trypomastigotes form Y strain of T. cruzi; conditions: read-out: IC50/24 h (concentration that produces 50% lysis of the parasites), trypomastigote forms; cited from earlier work
[3] = test system: whole human blood cells (WHBC); conditions: cited from earlier work; for percentage decrease in cell viability: 2 h
[4] = test system: whole human blood cells (WHBC); conditions: 149-6,400 µM, 2 h, p > 0.1; cited from earlier work

SMILES: Cn1c([N+](=O)[O-])cnc1-c1nnc(N)[nH]1 [Compound 4]
- CBPI ([1]; 150 µM, 4 h): 1.220
- NMNC/2000 binucleated cells ([1]; 150 µM, 4 h): 28
- RI (%) ([1]; 150 µM, 4 h): 106%
- CBPI ([1]; 640 µM, 4 h): 1.230
- NMNC/2000 binucleated cells ([1]; 640 µM, 4 h): 36
- RI (%) ([1]; 640 µM, 4 h): 107%
- CBPI ([1]; 1,600 µM, 4 h): 1.218
- NMNC/2000 binucleated cells ([1]; 1,600 µM, 4 h): 44
- RI (%) ([1]; 1,600 µM, 4 h): 76%
- CBPI ([1]; 4,000 µM, 4 h): 1.054
- RI (%) ([1]; 4,000 µM, 4 h): 22%
- CBPI ([1]; 10,000 µM, 4 h): 1.052
- RI (%) ([1]; 10,000 µM, 4 h): 23%
- maximum concentration used in MN analysis (inducing in the maximum 50% reduction of CBPI or RI) ([1]; 4 h, relative to solvent-control): 1,600 μM
- concentrations with significant mutagenic effect (increase of MNC) ([1]; 4 h, p < 0.01 for 3, p < 0.05 for 4 and 7): 1,600 μM
- result in the CBMN ([1]; overall call): clastogenic and/or aneugenic
- IC50 [2]: 257 ± 53 µM
- percentage decrease in cell viability ([3]; 149 µM): 1.0%
- percentage decrease in cell viability ([3]; 238 µM): 1.0%
- percentage decrease in cell viability ([3]; 382 µM): 1.0%
- percentage decrease in cell viability ([3]; 610 µM): 0%
- percentage decrease in cell viability ([3]; 1,562 µM): 1.0%
- percentage decrease in cell viability ([3]; 2,500 µM): 1.0%
- percentage decrease in cell viability ([3]; 4,000 µM): 0%
- percentage decrease in cell viability ([3]; 6,400 µM): 0%
- lethality variation range ([3]; 149-6,400 µM, 2 h at 37 °C, compared to solvent-control): 1-4%
- DNA strand breaks compared to solvent-control [4]: did not cause DNA strand breaks
